Patent US20180118708A1, “CYCLIC COMPOUND” (Takeda Pharmaceutical Company Limited, priority 2015, published 2018)

Molecular target: T1, TLR4 (Mus musculus, UniProt Q9QUK6)
T1 construct: endogenous in cells; host or cells: RAW264.7 (murine macrophage cell line)
T1 sequence (Q9QUK6 26-835): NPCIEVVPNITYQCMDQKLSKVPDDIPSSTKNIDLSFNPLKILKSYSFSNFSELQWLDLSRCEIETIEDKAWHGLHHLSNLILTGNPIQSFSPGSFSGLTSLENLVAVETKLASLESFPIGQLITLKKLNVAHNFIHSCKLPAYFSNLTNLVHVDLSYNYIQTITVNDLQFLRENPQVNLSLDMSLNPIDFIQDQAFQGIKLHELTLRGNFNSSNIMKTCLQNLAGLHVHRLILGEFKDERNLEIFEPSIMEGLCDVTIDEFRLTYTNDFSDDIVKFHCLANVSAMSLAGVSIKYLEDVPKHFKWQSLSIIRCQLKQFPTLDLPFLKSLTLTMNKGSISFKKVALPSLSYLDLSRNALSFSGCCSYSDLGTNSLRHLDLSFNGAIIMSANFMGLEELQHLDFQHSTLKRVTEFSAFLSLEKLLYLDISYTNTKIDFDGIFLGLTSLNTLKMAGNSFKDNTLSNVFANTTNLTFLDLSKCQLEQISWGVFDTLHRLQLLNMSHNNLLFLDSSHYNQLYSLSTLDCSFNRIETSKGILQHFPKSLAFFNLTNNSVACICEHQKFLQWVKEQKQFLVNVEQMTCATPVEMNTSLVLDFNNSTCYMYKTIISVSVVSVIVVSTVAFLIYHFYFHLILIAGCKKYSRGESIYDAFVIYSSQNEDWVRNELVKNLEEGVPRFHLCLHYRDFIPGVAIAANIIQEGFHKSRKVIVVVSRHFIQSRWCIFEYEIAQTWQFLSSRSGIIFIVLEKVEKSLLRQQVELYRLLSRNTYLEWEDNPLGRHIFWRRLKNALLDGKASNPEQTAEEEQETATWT
T1 sequence (Q9JHF9 19-160 partner): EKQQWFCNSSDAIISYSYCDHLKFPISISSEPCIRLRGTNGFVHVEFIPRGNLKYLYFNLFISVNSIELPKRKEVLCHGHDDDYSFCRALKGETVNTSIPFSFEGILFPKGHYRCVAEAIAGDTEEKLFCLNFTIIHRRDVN
Test: Inhibitory effect with respect to NO production (LPS/interferon γ stimulated RAW264.7 cells)
Assay type: cell-based, murine
Conditions: test compound 100 nM, LPS 1.25 ng/mL + mouse interferon γ 0.2 ng/mL, nitrite ion in culture supernatant
Procedure: Inhibitory Effect With Respect to NO Production
The inhibitory effect on TLR4 was determined using the inhibition rate due to the test compound with respect to NO production as a result of addition of lipopolysaccharide (LPS) using murine macrophage cell line RAW264.7. The cells were adjusted to 2×10^6 cells/mL using RPM1-1640 culture medium (phenol red free) supplemented with 10% inactivated bovine fetal serum, and were plated on 384 well plate so as to contain 6×10^4 cells/30 μL per well. Thereafter the cells were cultured at 37° C. overnight under 5% CO2/95% air. The test compound dissolved in DMSO was diluted 200 times using RPM1-1640 culture medium and adjusted so as to form a compound concentration of 500 nM. The prepared test compound 10 μL (final concentration 100 nM) was added to the cells, and LPS (Sigma) and mouse interferon γ (Wako Pure Chemicals) were added in amounts of 10 μL so as to form final concentrations of 1.25 ng/mL and 0.2 ng/mL respectively. The cells were further cultured overnight, and then the nitrite ion (stable NO metabolite) concentration in the culture supernatant was measured as an index of NO production. The nitrite ion concentration was assayed by adding 10 μL of 20 μg/mL 2,3-diamino naphthalene (DAN) dissolved in 0.2N HCl to 20 μL culture supernatant, incubating at room temperature for ten minutes, and then adding 10 μL of 0.5N NaOH, and measuring the fluorescent value at 460 nm (excitation wavelength 355 nm) using an EnVision plate reader (Perkin Elmer). The NO production inhibition rate (%) was calculated using the value without the addition of stimulating agent as control of 100% inhibition, and the value without the addition of the compound as control of 0% inhibition.

CCOC(=O)C1=CC2(CCC1S(=O)(=O)Cc1ccc(F)cc1Cl)O[C@@H](CO)[C@H](CO)O2 (single isomer, unassigned) [Compound 6]
NO production inhibitory effect at 100 nM (% inhibition) (0.1 µM): 92 % inhibition

CCOC(=O)C1=CC2(CCC1S(=O)(=O)Cc1ccc(F)cc1Cl)O[C@H](CO)[C@@H](CO)O2 (single isomer, unassigned) [Compound 15]
NO production inhibitory effect at 100 nM (% inhibition) (0.1 µM): 75 % inhibition

CCOC(=O)C1=CC2(CCC1S(=O)(=O)C(C)c1ccc(F)cc1Cl)O[C@H](CO)[C@@H](CO)O2 (single isomer, unassigned) [Compound 19]
NO production inhibitory effect at 100 nM (% inhibition) (0.1 µM): 110 % inhibition

CCOC(=O)C1=CC2(CCC1S(=O)(=O)C(C)c1ccc(F)cc1Cl)O[C@H](CO)[C@@H](CO)O2 (single isomer, unassigned) [Compound 20]
NO production inhibitory effect at 100 nM (% inhibition) (0.1 µM): 77 % inhibition

CCOC(=O)C1=CC2(CCC1S(=O)(=O)Cc1cc(Cl)ccc1F)O[C@H](CO)[C@@H](CO)O2 (stereo partly drawn) [Compound 4, ethyl (2R,3R)-8-((5-chloro-2-fluorobenzyl)sulfonyl)-2,3-bis(hydroxymethyl)-1,4-dioxaspiro[4.5]dec-6-ene-7-carboxylate]
NO production inhibitory effect at 100 nM (% inhibition): 100 % inhibition

CCOC(=O)C1=CC2(CCC1S(=O)(=O)Cc1ccc(F)c(Cl)c1)O[C@H](CO)[C@@H](CO)O2 (stereo partly drawn) [Compound 5, ethyl (2R,3R)-8-((3-chloro-4-fluorobenzyl)sulfonyl)-2,3-bis(hydroxymethyl)-1,4-dioxaspiro[4.5]dec-6-ene-7-carboxylate]
NO production inhibitory effect at 100 nM (% inhibition): 100 % inhibition

CCOC(=O)C1=CC2(CCC1S(=O)(=O)Cc1ccc(F)cc1Cl)OC[C@@H](CO)O2 (stereo partly drawn) [Compound 8, ethyl (2R)-8-((2-chloro-4-fluorobenzyl)sulfonyl)-2-(hydroxymethyl)-1,4-dioxaspiro[4.5]dec-6-ene-7-carboxylate]
NO production inhibitory effect at 100 nM (% inhibition) (0.1 µM): 100 % inhibition

CCOC(=O)C1=CC2(CCC1S(=O)(=O)Cc1ccc(F)cc1Cl)OC[C@@H](CO)O2 (stereo partly drawn) [Compound 9, ethyl (2R)-8-((2-chloro-4-fluorobenzyl)sulfonyl)-2-(hydroxymethyl)-1,4-dioxaspiro[4.5]dec-6-ene-7-carboxylate]
NO production inhibitory effect at 100 nM (% inhibition) (0.1 µM): 110 % inhibition

CCOC(=O)C1=CC2(CCC1S(=O)(=O)Cc1ccc(F)cc1Cl)O[C@H](COC(C)=O)[C@@H](COC(C)=O)O2 (stereo partly drawn) [Compound 10, ethyl (2R,3R)-2,3-bis(acetoxymethyl)-8-((2-chloro-4-fluorobenzyl)sulfonyl)-1,4-dioxaspiro[4.5]dec-6-ene-7-carboxylate]
NO production inhibitory effect at 100 nM (% inhibition): 110 % inhibition

CCOC(=O)C1=CC2(CCC1S(=O)(=O)Cc1ccc(F)cc1Cl)O[C@H](COC)[C@@H](COC)O2 (stereo partly drawn) [Compound 11, ethyl (2R,3R)-8-((2-chloro-4-fluorobenzyl)sulfonyl)-2,3-bis(methoxymethyl)-1,4-dioxaspiro[4.5]dec-6-ene-7-carboxylate]
NO production inhibitory effect at 100 nM (% inhibition): 110 % inhibition

CCOC(=O)C1=CC2(CCC1S(=O)(=O)Cc1cccc(C)c1)O[C@H](CO)[C@@H](CO)O2 (stereo partly drawn) [Compound 12, ethyl (2R,3R)-2,3-bis(hydroxymethyl)-8-((3-methylbenzyl)sulfonyl)-1,4-dioxaspiro[4.5]dec-6-ene-7-carboxylate]
NO production inhibitory effect at 100 nM (% inhibition): 100 % inhibition

CCOC(=O)C1=CC2(CCC1S(=O)(=O)Cc1cccc(OC)c1)O[C@H](CO)[C@@H](CO)O2 (stereo partly drawn) [Compound 13, ethyl (2R,3R)-2,3-bis(hydroxymethyl)-8-((3-methoxybenzyl)sulfonyl)-1,4-dioxaspiro[4.5]dec-6-ene-7-carboxylate]
NO production inhibitory effect at 100 nM (% inhibition): 100 % inhibition

CCOC(=O)C1=CC2(CCC1S(=O)(=O)Cc1ccc(F)cc1Cl)O[C@H](COC(=O)CN)[C@@H](COC(=O)CN)O2 (stereo partly drawn) [Compound 16, ethyl (2R,3R)-2,3-bis((2-aminoacetoxy)methyl)-8-((2-chloro-4-fluorobenzyl)sulfonyl)-1,4-dioxaspiro[4.5]dec-6-ene-7-carboxylate]
NO production inhibitory effect at 100 nM (% inhibition): 100 % inhibition

CCOC(=O)C1=CC2(CCC1S(=O)(=O)Cc1ccc(F)cc1Br)O[C@H](CO)[C@@H](CO)O2 (stereo partly drawn) [Compound 17, ethyl (2R,3R)-8-((2-bromo-4-fluorobenzyl)sulfonyl)-2,3-bis(hydroxymethyl)-1,4-dioxaspiro[4.5]dec-6-ene-7-carboxylate]
NO production inhibitory effect at 100 nM (% inhibition): 100 % inhibition

CCOC(=O)C1=CC2(CCC1S(=O)(=O)Cc1ccc(F)cc1Cl)O[C@H](C)[C@@H](C)O2 (stereo partly drawn) [Compound 18, ethyl (2R,3R)-8-((2-chloro-4-fluorobenzyl)sulfonyl)-2,3-dimethyl-1,4-dioxaspiro[4.5]dec-6-ene-7-carboxylate]
NO production inhibitory effect at 100 nM (% inhibition): 100 % inhibition

CCOC(=O)C1=CC2(CCC1S(=O)(=O)Cc1cc(F)ccc1Cl)O[C@H](CO)[C@@H](CO)O2 (stereo partly drawn) [Compound 21, ethyl (2R,3R)-8-((2-chloro-5-fluorobenzyl)sulfonyl)-2,3-bis(hydroxymethyl)-1,4-dioxaspiro[4.5]dec-6-ene-7-carboxylate]
NO production inhibitory effect at 100 nM (% inhibition): 100 % inhibition

CCOC(=O)C1=CC2(CCC1S(=O)(=O)Cc1ccc(F)cc1Cl)OCCO2 (stereo not shown) [Compound 22, ethyl 8-((2-chloro-4-fluorobenzyl)sulfonyl)-1,4-dioxaspiro[4.5]dec-6-ene-7-carboxylate]
NO production inhibitory effect at 100 nM (% inhibition): 110 % inhibition

CCOC(=O)C1=CC2(CCC1S(=O)(=O)Cc1ccccc1Cl)O[C@@H](CO)[C@H](CO)O2 (stereo partly drawn) [Compound 23, ethyl (2S,3S)-8-((2-chlorobenzyl)sulfonyl)-2,3-bis(hydroxymethyl)-1,4-dioxaspiro[4.5]dec-6-ene-7-carboxylate]
NO production inhibitory effect at 100 nM (% inhibition): 100 % inhibition

CCOC(=O)C1=CC2(CCC1S(=O)(=O)Cc1c(C)cccc1Cl)O[C@@H](CO)[C@H](CO)O2 (stereo partly drawn) [Compound 26, ethyl (2S,3S)-8-((2-chloro-6-methylbenzyl)sulfonyl)-2,3-bis(hydroxymethyl)-1,4-dioxaspiro[4.5]dec-6-ene-7-carboxylate]
NO production inhibitory effect at 100 nM (% inhibition): 110 % inhibition

CCOC(=O)C1=CC2(CCC1S(=O)(=O)Cc1ccc(F)cc1Cl)OC[C@@H](CNC(=O)OC(C)(C)C)O2 (stereo partly drawn) [Compound 27, ethyl (2R)-2-(((tert-butoxycarbonyl)amino)methyl)-8-((2-chloro-4-fluorobenzyl)sulfonyl)-1,4-dioxaspiro[4.5]dec-6-ene-7-carboxylate]
NO production inhibitory effect at 100 nM (% inhibition): 98 % inhibition

C#CCCCCOC[C@@H]1COC2(C=C(C(=O)OCC)C(S(=O)(=O)Cc3ccc(F)cc3Cl)CC2)O1 (stereo partly drawn) [Compound 28, ethyl (2R)-8-((2-chloro-4-fluorobenzyl)sulfonyl)-2-((hex-5-yn-1-yloxy)methyl)-1,4-dioxaspiro[4.5]dec-6-ene-7-carboxylate]
NO production inhibitory effect at 100 nM (% inhibition): 94 % inhibition

CCOC(=O)C1=CC2(CCC1S(=O)(=O)Cc1ccc(F)cc1Cl)OC[C@H](CNC(=O)OCc1ccccc1)O2 (stereo partly drawn) [Compound 29, ethyl (2S)-2-((((benzyloxy)carbonyl)amino)methyl)-8-((2-chloro-4-fluorobenzyl)sulfonyl)-1,4-dioxaspiro[4.5]dec-6-ene-7-carboxylate]
NO production inhibitory effect at 100 nM (% inhibition): 86 % inhibition
